Laboratory results published in patent US20080300298A1, “Honokiol Derivates For the Treatment of Proliferative Disorders” (priority 2005, published 2008).

How the values were obtained:
IKK = target: T1, IKK (Homo sapiens, UniProt O14920+O15111); experiment: IKK assay (immune complex kinase assay); assay type: cell-based
T1 construct: 200 mg of extract was immunoprecipitated with antibodies against IKKa and IKKb; endogenous in cells; host or cells: H1299 cells, whole-cell extracts, immunoprecipitated
T1 sequence (O15111 whole entry): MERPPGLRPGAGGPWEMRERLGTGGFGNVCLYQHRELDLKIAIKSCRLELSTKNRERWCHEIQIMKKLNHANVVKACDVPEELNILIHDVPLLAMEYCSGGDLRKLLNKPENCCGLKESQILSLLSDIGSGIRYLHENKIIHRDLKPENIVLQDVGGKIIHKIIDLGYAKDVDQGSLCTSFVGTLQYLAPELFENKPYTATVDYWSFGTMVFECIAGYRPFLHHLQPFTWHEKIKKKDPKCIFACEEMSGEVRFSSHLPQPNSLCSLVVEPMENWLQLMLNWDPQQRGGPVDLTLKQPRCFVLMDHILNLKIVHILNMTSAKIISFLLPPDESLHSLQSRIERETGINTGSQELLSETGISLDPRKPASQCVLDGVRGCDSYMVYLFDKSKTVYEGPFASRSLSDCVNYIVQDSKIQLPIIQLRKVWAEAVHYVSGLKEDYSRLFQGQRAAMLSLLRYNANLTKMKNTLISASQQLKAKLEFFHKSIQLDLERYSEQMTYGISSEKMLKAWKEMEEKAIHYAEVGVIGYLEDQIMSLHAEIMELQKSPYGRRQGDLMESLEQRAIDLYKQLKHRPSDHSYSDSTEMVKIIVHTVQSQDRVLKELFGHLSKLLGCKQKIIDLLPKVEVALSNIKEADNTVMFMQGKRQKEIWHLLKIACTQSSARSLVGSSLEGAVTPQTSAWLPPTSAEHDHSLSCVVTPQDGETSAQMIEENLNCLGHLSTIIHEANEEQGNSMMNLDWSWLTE
T1 sequence (O14920 whole entry): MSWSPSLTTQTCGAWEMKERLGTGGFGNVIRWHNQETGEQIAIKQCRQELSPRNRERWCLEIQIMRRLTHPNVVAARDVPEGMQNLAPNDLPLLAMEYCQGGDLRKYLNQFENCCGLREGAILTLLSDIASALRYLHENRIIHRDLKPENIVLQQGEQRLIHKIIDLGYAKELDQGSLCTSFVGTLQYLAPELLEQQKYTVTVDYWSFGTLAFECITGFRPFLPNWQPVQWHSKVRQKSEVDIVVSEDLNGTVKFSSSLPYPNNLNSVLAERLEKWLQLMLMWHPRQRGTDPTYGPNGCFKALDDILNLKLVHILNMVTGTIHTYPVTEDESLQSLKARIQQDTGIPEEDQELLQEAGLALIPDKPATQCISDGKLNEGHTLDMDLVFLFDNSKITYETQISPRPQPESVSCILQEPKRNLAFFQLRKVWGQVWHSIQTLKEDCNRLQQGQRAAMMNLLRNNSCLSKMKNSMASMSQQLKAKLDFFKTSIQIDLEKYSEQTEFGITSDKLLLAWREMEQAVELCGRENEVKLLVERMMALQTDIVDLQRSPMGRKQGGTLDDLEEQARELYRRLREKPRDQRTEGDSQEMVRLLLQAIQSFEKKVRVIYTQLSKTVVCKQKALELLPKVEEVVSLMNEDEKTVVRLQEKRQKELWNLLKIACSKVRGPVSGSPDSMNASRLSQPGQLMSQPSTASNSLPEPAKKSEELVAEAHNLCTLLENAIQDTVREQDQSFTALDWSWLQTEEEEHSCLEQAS
T1 sequence (Q9Y6K9 whole entry partner): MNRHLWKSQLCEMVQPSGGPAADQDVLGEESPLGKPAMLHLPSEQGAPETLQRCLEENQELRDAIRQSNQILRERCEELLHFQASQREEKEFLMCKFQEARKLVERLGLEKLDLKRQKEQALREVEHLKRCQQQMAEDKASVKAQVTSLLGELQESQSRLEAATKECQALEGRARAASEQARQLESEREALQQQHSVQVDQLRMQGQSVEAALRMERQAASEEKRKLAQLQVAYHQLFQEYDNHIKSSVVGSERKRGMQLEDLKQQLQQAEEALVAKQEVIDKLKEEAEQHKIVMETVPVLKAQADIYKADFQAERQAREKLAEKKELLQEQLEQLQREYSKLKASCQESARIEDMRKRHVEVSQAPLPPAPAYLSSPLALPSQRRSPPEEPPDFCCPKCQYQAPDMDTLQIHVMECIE
Protocol: Honokiol inhibits TNF-induced activation of NF-kB. H1299 cells were incubated with […] honokiol for 12 h, treated with 0.1 nM TNF for the indicated times, and then analyzed for NF-kB activation by EMSA. (B) H1299 cells (2×10^6/ml) were incubated with […] honokiol for 12 h at 37° C., treated with 0.1 nM TNF for the indicated times at 37° C., and then tested for IkBa (upper panel) in cytosolic fractions by Western blot analysis. Equal protein loading was evaluated by b-actin (lower panel). (C) Honokiol blocks the phosphorylation and ubiquitination (D) of IkBaby TNF. […] To examine the effect of honokiol on the level of expression of IKK proteins, 30 mg of whole-cell extract was analyzed on 10% SDS-PAGE, electrotransferred, and immunoblotted with the indicated antibodies as described in Materials and Methods. […] Nuclear extracts were prepared and analyzed by Western blotting using antibodies against p65. […] The cytoplasmic and nuclear extracts were analyzed by Western blotting using antibodies against the phosphorylated form of p65.
IKK assay. To determine the effect of honokiol on TNF-induced IKK activation, we analyzed IKK by a method essentially as described previously (Shishodia, S., et al. 2003 Cancer Res. 63:4375-4383). […]

[1] = test system: cyclin D1, p27Kip1, p21Cip1/WAF1, EGFR, AKT, ERK2 in MDA-MB-231 cells; experiment: Western blot of cell cycle and growth signaling proteins; assay type: cell-based; conditions: MDA-MB-231, 20, 40 and 60 μM, 24 hours
Protocol: Western blot analysis: Cells were harvested and lysed for total protein extraction in a buffer containing 50 mM Tris-Cl pH 7.4, 150 mM NaCl and 2% NP-40 together with a protease inhibitor cocktail (Comp). Approximately 50-150 μg of protein extract was loaded on a 4-15% polyacrylamide gels (Bio-Rad, Hercules, Calif.), separated electrophoretically and blotted from the gel onto PVDF membrane. The membranes were then blocked with a blocking buffer (5% non-fat dry milk in 1×TBST, i.e. 20 mM Tris-HCl, pH 7.6 containing 0.8% NaCl and 0.1% Tween-20) at room temperature for 1 h. The membranes were incubated with the primary antibodies in blocking buffer, followed by incubation with HRP-labeled secondary antibodies. Immunoactivity was detected with horseradish peroxidase-conjugated secondary antibody and visualized by Enhanced Chemiluminescence (Pierce, Rockford, Ill.). Quantification of the results was performed using AlphaImager 2000 (Alpha Innotech, San Leandro, Calif.).
HNK slows cell cycle in breast cancer cell lines. The effects of HNK (10 μM or 30 μM HNK for 24 hours) on cell cycle were evaluated in MCF-7 and MDA-MB-231 cells. These doses of HNK are less than the LC50 for both cell lines. […] Expression of proteins involved in G1 cell-cycle regulation (massgue) was examined in MDA-MB-231 cells using Western analysis.
HNK inhibits growth signaling pathways. […]

With C=CCc1ccc(O)c(-c2ccc(O)c(CC=C)c2)c1 [HNK, Honokiol] the “TNF-induced IKK activation” value (IKK; cells treated with honokiol 12 h, 0.1 nM TNF) was “completely suppressed TNF-induced activation of IKK”, the “IKK activity in vitro (direct effect)” value (IKK; in vitro) was “did not directly interfere with the IKK activity” and the “expression of G1 cell-cycle regulation proteins” value [1] was “reduced the levels of cyclin D1, and upregulated expression of the cyclin-dependent kinase inhibitors, p27Kip1 and p21Cip1/WAF1”.
